Test results published in ChEMBL document CHEMBL1129307, “5-(4-Chlorophenyl)-4-methyl-3-(1-(2-phenylethyl)piperidin-4-yl)isoxazole: a potent, selective antagonist at human cloned dopamine D4 receptors” (J Med Chem, 1996).

What follows are compounds tested against T1, D(4) dopamine receptor (Homo sapiens, UniProt P21917) (assay: biochemical).
T1 sequence (P21917 whole entry): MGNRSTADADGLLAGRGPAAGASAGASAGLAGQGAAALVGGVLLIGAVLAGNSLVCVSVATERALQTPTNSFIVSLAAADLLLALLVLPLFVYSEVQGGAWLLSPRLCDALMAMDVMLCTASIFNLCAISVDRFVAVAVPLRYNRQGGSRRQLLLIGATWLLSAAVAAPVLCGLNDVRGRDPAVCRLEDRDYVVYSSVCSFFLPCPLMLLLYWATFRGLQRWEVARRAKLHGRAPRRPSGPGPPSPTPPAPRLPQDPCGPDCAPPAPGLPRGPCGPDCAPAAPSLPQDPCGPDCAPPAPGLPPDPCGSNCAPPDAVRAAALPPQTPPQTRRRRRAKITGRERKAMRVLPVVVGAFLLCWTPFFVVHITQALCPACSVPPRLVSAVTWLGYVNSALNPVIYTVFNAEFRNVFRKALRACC
Description: Displacement of [3H]spiperone from human Dopamine receptor D4 expressed in HEK293 cells

First: Cc1c(-c2ccc(Cl)cc2)noc1C1CCN(CCc2ccccc2)CC1
Second: Cc1c(C2CCN(CCc3ccccc3)CC2)n[nH]c1-c1ccc(Cl)cc1
The Ki of the first is 2.1-fold higher: 2.5 nM for the first, 1.2 nM for the second. The second binds more tightly here.

First: Clc1ccc(CN2CCC(c3cc(-c4ccc(Cl)cc4)on3)CC2)cc1
Second: Clc1ccc(CN2CCC(c3cc(-c4ccc(Cl)cc4)no3)CC2)cc1
The Ki of the first is 12-fold higher: 44 nM for the first, 3.6 nM for the second. The second binds more tightly here.

First: Clc1ccc(CN2CCC(c3cc(-c4ccc(Cl)cc4)[nH]n3)CC2)cc1
Second: Clc1ccc(-c2cc(C3CCN(CCc4ccccc4)CC3)[nH]n2)cc1
The Ki of the first is 11-fold higher: 61 nM for the first, 5.5 nM for the second. The second binds more tightly here.

What follows are compounds tested against D(3) dopamine receptor (Homo sapiens, UniProt P35462) (assay: biochemical).
Sequence of D(3) dopamine receptor (P35462 whole entry): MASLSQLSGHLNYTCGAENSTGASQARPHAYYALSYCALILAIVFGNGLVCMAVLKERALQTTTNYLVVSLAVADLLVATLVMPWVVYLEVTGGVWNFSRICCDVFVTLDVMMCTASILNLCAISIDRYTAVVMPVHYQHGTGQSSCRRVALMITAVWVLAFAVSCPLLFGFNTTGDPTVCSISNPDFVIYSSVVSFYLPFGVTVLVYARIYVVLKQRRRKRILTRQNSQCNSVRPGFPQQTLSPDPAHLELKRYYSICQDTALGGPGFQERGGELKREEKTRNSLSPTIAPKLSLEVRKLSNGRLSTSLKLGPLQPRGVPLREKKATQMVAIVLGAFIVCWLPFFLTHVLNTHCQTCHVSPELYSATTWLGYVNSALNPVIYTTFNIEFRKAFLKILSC
Description: Displacement of [3H]spiperone from human Dopamine receptor D3 expressed in CHO cells

First: Cc1c(-c2ccc(Cl)cc2)noc1C1CCN(CCc2ccccc2)CC1
Second: Cc1c(C2CCN(CCc3ccccc3)CC2)n[nH]c1-c1ccc(Cl)cc1
The Ki of the first is 2.5-fold lower: 480 nM for the first, 1200 nM for the second.

First: Clc1ccc(CN2CCC(c3cc(-c4ccc(Cl)cc4)on3)CC2)cc1
Second: Clc1ccc(CN2CCC(c3cc(-c4ccc(Cl)cc4)no3)CC2)cc1
The Ki of the first is 5.3-fold higher: 430 nM for the first, 81 nM for the second. The second binds more tightly here.

Going from `Clc1ccc(CN2CCC(c3cc(-c4ccc(Cl)cc4)[nH]n3)CC2)cc1` to `Clc1ccc(-c2cc(C3CCN(CCc4ccccc4)CC3)[nH]n2)cc1`, the Ki rises from 820 nM to over 4000 nM.
